Paper PMC5078011, “The oleocanthal-based homovanillyl sinapate as a novel c-Met inhibitor” (Oncotarget, 2016)

Target: c-Met (M1250T) (Homo sapiens, UniProt P08581, M1250T)
Assay: Z'-LYTE Tyr6 peptide kinase assay, recombinant M1250T c-Met
Assay type: biochemical
Conditions: read-out: (-)-Oleocanthal^a / IC50 (μM) ± SEM

Sequence of c-Met (M1250T) (P08581 956-1390 M1250T limits assumed): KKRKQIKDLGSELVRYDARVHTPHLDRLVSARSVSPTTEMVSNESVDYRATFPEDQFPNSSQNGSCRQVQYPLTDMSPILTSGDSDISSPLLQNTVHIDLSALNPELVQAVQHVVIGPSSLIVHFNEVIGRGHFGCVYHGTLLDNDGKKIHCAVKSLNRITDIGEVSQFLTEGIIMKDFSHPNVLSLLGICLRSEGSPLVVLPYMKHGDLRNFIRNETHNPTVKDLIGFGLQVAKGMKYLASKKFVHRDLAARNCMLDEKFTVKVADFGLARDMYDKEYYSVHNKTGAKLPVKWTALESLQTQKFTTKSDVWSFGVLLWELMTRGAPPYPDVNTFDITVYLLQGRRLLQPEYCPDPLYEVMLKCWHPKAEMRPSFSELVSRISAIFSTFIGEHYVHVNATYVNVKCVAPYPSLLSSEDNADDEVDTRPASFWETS

Compound `C/C=C(/C=O)[C@@H](CC=O)CC(=O)OCCc1ccc(O)cc1` [S (−)-oleocanthal] has an IC50 of 3.9 µM.
